# Legend:
# [1] = in vivo, cited from earlier work
# [2] = test system: human subjects; details: cited from earlier work
# [3] = test system: cytochrome P450; experiment: microsomal stability, pooled liver microsomes, cytochrome P450 alone; type: in vitro ADME; details: 45 minute experiment
# Method: (§1) At five time points over the course of a 45 minute experiment, the compounds were analyzed by liquid chromatography and tandem mass spectrometry (LC-MS/MS). Intrinsic clearance values (CLint) with standard error (SE CLint) and metabolic half-life (t1/2) were calculated and are indicated in Table 9, below.
# [4] = test system: spontaneous uterine contractions; details: anesthetized late-term pregnant rats, cited from earlier work
# [5] = biological target: CYP2C19 (Homo sapiens, UniProt P33261); experiment: metabolism by CYP2C19 isoform; type: in vitro ADME; details: for Compound Remaining (% of compound present at t = 0 min): 5 μM
# Method: (§2) At five time points over the course of a 45 minute experiment, the compounds were analyzed by LC-MS/MS. The percentage of each compound remaining at each time point, along with the metabolic half-lives of each compound in the presence of each cytochrome P450 isoform, are indicated in Tables 10-12, below.
# [6] = test system: cytochrome P450 in combination with UGT; experiment: microsomal stability, pooled liver microsomes, cytochrome P450 in combination with UGT; type: in vitro ADME; details: 45 minute experiment
# Method: as §1
# [7] = biological target: CYP3A4 (Homo sapiens, UniProt P08684); experiment: metabolism by CYP3A4 isoform; type: in vitro ADME; details: for Compound Remaining (% of compound present at t = 0 min): 5 μM
# Method: as §2
# Sequence of CYP3A4 (P08684 whole entry, canonical isoform): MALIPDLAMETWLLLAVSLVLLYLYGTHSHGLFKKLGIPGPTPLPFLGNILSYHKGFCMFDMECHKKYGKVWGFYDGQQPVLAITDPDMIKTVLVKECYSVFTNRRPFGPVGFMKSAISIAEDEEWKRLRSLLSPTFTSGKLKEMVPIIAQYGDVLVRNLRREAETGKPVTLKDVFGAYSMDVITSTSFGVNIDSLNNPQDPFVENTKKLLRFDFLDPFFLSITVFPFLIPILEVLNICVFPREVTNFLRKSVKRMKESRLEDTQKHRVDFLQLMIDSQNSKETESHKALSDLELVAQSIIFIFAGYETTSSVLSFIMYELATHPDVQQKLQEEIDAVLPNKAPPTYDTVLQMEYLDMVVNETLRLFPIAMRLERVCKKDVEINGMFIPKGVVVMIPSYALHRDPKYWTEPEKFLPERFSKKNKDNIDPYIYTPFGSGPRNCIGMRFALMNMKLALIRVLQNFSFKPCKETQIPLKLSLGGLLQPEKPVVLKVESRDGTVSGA
# Sequence of CYP2C19 (P33261 whole entry, canonical isoform): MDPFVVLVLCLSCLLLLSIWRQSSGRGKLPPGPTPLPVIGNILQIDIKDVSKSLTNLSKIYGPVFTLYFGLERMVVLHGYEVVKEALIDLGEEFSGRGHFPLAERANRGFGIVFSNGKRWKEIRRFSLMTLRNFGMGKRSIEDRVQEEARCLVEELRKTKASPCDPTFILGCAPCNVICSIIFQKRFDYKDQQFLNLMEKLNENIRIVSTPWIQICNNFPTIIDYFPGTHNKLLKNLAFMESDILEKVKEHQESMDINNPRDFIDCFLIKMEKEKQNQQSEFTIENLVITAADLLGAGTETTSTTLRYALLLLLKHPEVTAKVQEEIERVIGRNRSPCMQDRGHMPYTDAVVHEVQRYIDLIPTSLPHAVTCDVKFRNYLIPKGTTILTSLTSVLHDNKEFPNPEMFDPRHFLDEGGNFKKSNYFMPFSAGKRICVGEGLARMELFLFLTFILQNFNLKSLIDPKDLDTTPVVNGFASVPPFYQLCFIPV
structure (smiles),measurement,setting,value
"CO/N=C1/C[C@@H](CO)N(C(=O)c2ccc(-c3ccccc3C)cc2)C1 [Compound (II), (3Z,5S)-5-(hydroxymethyl)-1-[(2′-methyl-1,1′-biphenyl-4-yl)carbonyl]pyrrolidin-3-one O-methyloxime]",oral bioavailability,[1]; po,42-100%
same,serum half-life,[1],11 to 12 h
same,tmax,[1],1 to 4 h
same,safely tolerated dose,[2],up to 1500 mg
same,microsomal CLint at 3 μM,"[3]; read-out: CLint, Metabolic Stability - CYP",11.6 µL/min/mg
same,half-life at 3 μM,"[3]; read-out: t1/2, Metabolic Stability - CYP",2 h
same,effect on spontaneous uterine contractions,"[4]; 10, 30, and 60 mg/kg",dose-dependent reduction in spontaneous uterine contractions
same,Inhibition of spontaneous uterine contractions,[4]; from 170 to 180 minutes after oral administration at a dose of 60 mg/kg,about 42%
same,Compound Remaining (% of compound present at t = 0 min),[5]; 0 min,100%
same,Compound Remaining (% of compound present at t = 0 min),[5]; 5 min,93.7%
same,Compound Remaining (% of compound present at t = 0 min),[5]; 15 min,79.1%
same,Compound Remaining (% of compound present at t = 0 min),[5]; 30 min,67.8%
same,Compound Remaining (% of compound present at t = 0 min),[5]; 45 min,59.9%
same,half-life at 5 μM,[5]; human,1.01 h
same,microsomal CLint at 3 μM,"[6]; read-out: CLint, Metabolic Stability - CYP/UGT",9.33 µL/min/mg
same,half-life at 3 μM,"[6]; read-out: t1/2, Metabolic Stability - CYP/UGT",2.48 h
same,Compound Remaining (% of compound present at t = 0 min),[7]; 0 min,100%
same,Compound Remaining (% of compound present at t = 0 min),[7]; 5 min,86.5%
same,Compound Remaining (% of compound present at t = 0 min),[7]; 15 min,75.9%
same,Compound Remaining (% of compound present at t = 0 min),[7]; 30 min,67.3%
same,Compound Remaining (% of compound present at t = 0 min),[7]; 45 min,63.9%
same,half-life at 5 μM,[7]; human,1.23 h

# Reference: US20190247361A1, “OXYTOCIN ANTAGONIST DOSING REGIMENS FOR PROMOTING EMBRYO IMPLANTATION AND PREVENTING MISCARRIAGE” (ObsEva S.A., priority 2016, published 2019)
